Patent US12679836B2, “4H-pyrrolo[3,2-c]pyridin-4-one compounds” (Bayer Aktiengesellschaft, priority 2019, dated 2026)
Where “and” joins values, the source holds several entries; their conditions need not be identical. Equal values may be shown once. Read-outs that look alike come from different tables or passages of the source.

Legend:
[1] = molecular target: Ba/F3-EGFR-V769_D770insASV cells (Homo sapiens, UniProt P00533, DUP767-769, cells depend on it); assay: Ba/F3 cell survival assay, EGFR V769_D770insASV; assay type: cell-based; conditions: without IL-3, without EGF, 48 h; read-out: BA/F3 (ASV) IC50
Method: (§1) 293T cells from ATCC were transfected with pBABEpuro expression constructs for mutant EGFR (V769_D770insASV, D770_N771insNPG, N771_P772insH, H773_V774insNPH, E746_A750del, L858R, D770_N771insSVD C797S, E746_A750del C797S, L858R C797S, L861Q) or mutant ERBB2 (A775_G776insYVMA) and pCL-Eco packaging vector using Fugene-6 transfection reagent from Promega. Plates were incubated at 37° C. for 48 h. Retrovirus was harvested by filtering the media supernatant through a 0.45 μm filter.
(§2) Ba/F3 cells purchased from DSMZ were grown in RPMI+10% FBS+10 ng/mL IL-3 and infected with filtered retroviral supernatant at a 1:2 dilution. Polybrene was added to a concentration of 8 μg/mL, plates were spun for 90 min, and incubated overnight at 37° C. 2 μg/mL puromycin was added to the infected cells 24 h after infection and cells were continually grown in the presence of puromycin and 10 ng/mL IL-3. Following stably expressing Ba/F3 cell lines were generated: Ba/F3-EGFR-V769_D770insASV, Ba/F3-EGFR-D770_N771insNPG, Ba/F3-EGFR-N771_P772insH, Ba/F3-EGFR-H773_V774insNPH, Ba/F3-EGFR-E746_A750del, Ba/F3-EGFR-L858R, Ba/F3-EGFR-D770_N771 insSVD C797S, Ba/F3-EGFR-E746_A750del C797S, Ba/F3-EGFR-L858R C797S, Ba/F3-EGFR L861Q and Ba/F3-ERBB2-A775_G776insYVMA (Ba/F3-vector-control).
(§3) For cell survival assays, Ba/F3 cells were grown to a density of 1-2 million cells per mL, spun down and resuspended in media without IL-3, and replated at a concentration 200,000-500,000 cells per mL. The cells ectopically expressing WT EGFR plated with 10 ng/mL Millipore Culture grade EGF and Ba/F3 cells containing mutant EGFR or Mutant ERBB2 were cultivated without EGF. The cells ectopically expressing pBABEpuro empty vector were plated with 10 ng/mL IL-3.
(§4) 2 days later, cells were plated in 50 μL in a 384 well plate at a concentration of 4000 cells per well for cells assayed in the absence of IL-3 and 2000 cells per well for cells assayed in the presence of IL-3. 100 nL of compound was added to each well using a 100 nL pin head, and plates were incubated at 37° C. for 48 h.
(§5) Cell viability was measured by adding 20 μL of Cell Titer-Glo Luminescent Cell Viability Reagent diluted 1:3 in PBS. Plates were sealed with Perkin Elmer Top-Seal, inverted several times to mix, and immediately centrifuged at 1000 rpm for 2 min. Plates were incubated in low light conditions for 8-10 min and luminescence was measured.

[2] = molecular target: T1, EGFR with insertion of SVD between D770 and N771 (EGFR ins SVD) (Homo sapiens, UniProt P00533, DUP768-770); assay: Exon20-Mutant-EGFR(D770_N771insSVD) kinase assay (TR-FRET); assay type: biochemical; conditions: 2 mM ATP, several values per example where printed
T1 construct: made in house; host or cells: Sf9 insect cells (baculovirus)

[3] = molecular target: Ba/F3-EGFR-H773_V774insNPH cells (Homo sapiens, UniProt P00533, DUP771-773, cells depend on it); assay: Ba/F3 cell survival assay, EGFR H773_V774insNPH; assay type: cell-based; conditions: read-out: BA/F3 (EGFR 773_774insNPH) IC50 [mol/l]; without IL-3, without EGF, 48 h
Method: as §1, §2, §3, §4, §5

[4] = molecular target: Ba/F3-EGFR-N771_P772insH cells (Homo sapiens, UniProt P00533, INS771H, cells depend on it); assay: Ba/F3 cell survival assay, EGFR N771_P772insH; assay type: cell-based; conditions: without IL-3, without EGF, 48 h; read-out: BA/F3 (EGFR N771_772 insH) IC50
Method: as §1, §2, §3, §4, §5

Bub1 = molecular target: T2, Bub1 (Homo sapiens, UniProt O43683); assay: Bub1 TR-FRET high ATP kinase assay; assay type: biochemical; conditions: 2 mM ATP
T2 construct: catalytic domain of human Bub1 (amino acids 704-1085); His6 (N); made in house; host or cells: Hi5 insect cells
In short: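 Recombinant His6-tagged human Bub1 catalytic domain (aa 704-1085), from Hi5 insect cells, phosphorylating a biotinylated peptide substrate at high ATP concentration. TR-FRET read-out.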

[5] = molecular target: Ba/F3-EGFR-D770_N771insNPG cells (Homo sapiens, UniProt P00533, INS772GNP, cells depend on it); assay: Ba/F3 cell survival assay, EGFR D770_N771insNPG; assay type: cell-based; conditions: without IL-3, without EGF, 48 h; read-out: BA/F3 (insNPG) IC50
Method: as §1, §2, §3, §4, §5

Ba/F3-EGFR L861Q cells = Ba/F3-EGFR L861Q cells (Homo sapiens, UniProt P00533, L861Q, cells depend on it); assay: Ba/F3 cell survival assay, EGFR L861Q; assay type: cell-based; conditions: without IL-3, without EGF, 48 h; read-out: BA/F3 (EGFR L861Q) IC50
Method: as §1, §2, §3, §4, §5

[6] = molecular target: Ba/F3-EGFR-L858R C797S cells (Homo sapiens, UniProt P00533, C797S/L858R, cells depend on it); assay: Ba/F3 cell survival assay, EGFR L858R C797S; assay type: cell-based; conditions: without IL-3, without EGF, 48 h; read-out: BA/F3 (EGFR L858R C797S) IC50
Method: as §1, §2, §3, §4, §5

[7] = Bub1 high ATP (2 mM) IC50 [mol/l]

Chain of Ba/F3-EGFR-H773_V774insNPH cells (P00533 with tags, fused parts or gaps DUP771-773): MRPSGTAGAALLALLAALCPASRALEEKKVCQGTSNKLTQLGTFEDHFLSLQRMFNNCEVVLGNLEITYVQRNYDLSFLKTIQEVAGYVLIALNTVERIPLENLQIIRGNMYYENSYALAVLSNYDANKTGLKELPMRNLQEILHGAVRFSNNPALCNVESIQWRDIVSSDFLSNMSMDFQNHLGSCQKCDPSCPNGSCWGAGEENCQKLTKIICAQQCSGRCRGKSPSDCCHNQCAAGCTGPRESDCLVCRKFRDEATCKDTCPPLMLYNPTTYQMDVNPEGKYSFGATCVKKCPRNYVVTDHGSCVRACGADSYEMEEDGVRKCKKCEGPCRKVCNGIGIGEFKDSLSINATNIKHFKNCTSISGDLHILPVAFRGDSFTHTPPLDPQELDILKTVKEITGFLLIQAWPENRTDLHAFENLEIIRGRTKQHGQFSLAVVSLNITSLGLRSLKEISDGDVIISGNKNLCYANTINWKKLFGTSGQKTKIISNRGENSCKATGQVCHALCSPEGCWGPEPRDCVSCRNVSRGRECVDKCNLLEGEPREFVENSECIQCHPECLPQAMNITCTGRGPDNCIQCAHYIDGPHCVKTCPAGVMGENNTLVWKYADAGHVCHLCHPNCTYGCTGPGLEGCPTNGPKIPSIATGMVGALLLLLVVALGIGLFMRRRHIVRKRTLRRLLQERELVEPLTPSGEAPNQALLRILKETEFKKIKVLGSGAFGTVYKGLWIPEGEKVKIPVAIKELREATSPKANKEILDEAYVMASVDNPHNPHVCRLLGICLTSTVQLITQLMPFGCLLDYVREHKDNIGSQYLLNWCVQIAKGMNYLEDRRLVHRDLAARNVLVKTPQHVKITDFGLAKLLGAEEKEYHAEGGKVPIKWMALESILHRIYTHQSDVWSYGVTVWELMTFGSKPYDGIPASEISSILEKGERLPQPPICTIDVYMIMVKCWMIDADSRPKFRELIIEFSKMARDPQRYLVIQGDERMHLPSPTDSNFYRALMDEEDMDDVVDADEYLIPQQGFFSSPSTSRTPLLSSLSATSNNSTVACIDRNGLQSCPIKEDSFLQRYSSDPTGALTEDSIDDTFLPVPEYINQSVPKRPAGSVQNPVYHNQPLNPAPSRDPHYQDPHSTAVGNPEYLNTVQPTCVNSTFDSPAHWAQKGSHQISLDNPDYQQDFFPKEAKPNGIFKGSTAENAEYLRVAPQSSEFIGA
Chain of Ba/F3-EGFR-D770_N771insNPG cells (P00533 with tags, fused parts or gaps INS772GNP): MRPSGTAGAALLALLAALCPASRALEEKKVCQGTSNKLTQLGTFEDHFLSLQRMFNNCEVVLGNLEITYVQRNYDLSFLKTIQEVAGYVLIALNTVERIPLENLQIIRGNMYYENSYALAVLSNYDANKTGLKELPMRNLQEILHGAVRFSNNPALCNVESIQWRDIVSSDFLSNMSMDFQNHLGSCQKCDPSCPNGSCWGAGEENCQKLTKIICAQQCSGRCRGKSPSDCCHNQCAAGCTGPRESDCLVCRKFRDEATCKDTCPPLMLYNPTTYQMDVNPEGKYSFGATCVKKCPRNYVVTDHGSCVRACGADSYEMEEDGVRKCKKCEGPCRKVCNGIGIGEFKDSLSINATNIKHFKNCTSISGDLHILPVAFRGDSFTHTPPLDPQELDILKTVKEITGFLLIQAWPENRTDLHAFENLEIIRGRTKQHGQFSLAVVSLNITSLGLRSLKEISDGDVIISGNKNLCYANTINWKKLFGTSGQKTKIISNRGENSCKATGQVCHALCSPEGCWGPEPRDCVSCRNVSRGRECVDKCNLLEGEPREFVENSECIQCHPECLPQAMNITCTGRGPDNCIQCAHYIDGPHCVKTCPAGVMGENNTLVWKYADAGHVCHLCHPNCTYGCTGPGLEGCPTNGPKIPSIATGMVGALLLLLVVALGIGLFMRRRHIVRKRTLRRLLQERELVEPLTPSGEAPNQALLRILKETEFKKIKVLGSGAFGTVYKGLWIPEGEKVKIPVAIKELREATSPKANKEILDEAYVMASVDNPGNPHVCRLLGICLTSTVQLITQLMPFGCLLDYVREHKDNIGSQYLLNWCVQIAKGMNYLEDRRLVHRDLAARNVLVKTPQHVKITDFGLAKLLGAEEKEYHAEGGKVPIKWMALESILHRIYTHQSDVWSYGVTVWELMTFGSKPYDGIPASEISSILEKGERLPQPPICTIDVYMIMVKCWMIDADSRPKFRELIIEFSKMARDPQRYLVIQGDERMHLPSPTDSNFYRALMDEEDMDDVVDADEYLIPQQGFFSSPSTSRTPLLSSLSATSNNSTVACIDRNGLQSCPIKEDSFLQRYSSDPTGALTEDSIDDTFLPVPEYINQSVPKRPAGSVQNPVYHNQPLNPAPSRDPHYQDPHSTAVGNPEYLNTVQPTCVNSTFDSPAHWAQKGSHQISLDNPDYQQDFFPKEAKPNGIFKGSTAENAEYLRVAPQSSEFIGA
Chain of Ba/F3-EGFR-L858R C797S cells (P00533 whole entry C797S/L858R): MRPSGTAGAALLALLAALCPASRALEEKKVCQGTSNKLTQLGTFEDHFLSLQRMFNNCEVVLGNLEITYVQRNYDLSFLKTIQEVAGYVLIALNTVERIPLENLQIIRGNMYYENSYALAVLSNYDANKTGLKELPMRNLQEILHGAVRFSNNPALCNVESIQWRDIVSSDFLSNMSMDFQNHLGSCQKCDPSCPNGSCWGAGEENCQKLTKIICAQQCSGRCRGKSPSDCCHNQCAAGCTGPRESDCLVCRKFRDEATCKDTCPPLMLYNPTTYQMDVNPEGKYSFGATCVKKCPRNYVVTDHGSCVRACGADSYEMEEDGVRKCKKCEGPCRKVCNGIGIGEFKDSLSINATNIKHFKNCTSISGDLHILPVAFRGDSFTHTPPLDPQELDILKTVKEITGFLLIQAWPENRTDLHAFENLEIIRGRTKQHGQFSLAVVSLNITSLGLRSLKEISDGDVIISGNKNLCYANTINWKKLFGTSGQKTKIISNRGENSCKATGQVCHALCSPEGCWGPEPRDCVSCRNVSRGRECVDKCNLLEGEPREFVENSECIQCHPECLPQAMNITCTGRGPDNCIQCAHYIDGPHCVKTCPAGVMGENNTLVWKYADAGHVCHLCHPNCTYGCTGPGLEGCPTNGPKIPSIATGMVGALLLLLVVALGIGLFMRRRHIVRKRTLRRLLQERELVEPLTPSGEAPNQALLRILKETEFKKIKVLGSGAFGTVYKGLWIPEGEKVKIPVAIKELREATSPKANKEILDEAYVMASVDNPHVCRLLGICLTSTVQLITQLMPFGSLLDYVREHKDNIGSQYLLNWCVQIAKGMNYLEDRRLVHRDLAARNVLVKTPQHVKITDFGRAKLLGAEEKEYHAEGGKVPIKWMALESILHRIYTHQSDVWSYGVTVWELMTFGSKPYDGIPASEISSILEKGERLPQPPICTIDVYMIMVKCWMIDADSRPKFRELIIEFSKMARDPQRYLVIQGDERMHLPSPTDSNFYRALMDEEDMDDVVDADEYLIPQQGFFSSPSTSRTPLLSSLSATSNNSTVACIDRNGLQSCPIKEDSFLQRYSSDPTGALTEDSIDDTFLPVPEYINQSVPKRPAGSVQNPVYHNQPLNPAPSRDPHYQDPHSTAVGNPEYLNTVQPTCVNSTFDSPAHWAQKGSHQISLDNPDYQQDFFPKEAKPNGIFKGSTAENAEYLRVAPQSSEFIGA
Chain of Ba/F3-EGFR L861Q cells (P00533 whole entry L861Q): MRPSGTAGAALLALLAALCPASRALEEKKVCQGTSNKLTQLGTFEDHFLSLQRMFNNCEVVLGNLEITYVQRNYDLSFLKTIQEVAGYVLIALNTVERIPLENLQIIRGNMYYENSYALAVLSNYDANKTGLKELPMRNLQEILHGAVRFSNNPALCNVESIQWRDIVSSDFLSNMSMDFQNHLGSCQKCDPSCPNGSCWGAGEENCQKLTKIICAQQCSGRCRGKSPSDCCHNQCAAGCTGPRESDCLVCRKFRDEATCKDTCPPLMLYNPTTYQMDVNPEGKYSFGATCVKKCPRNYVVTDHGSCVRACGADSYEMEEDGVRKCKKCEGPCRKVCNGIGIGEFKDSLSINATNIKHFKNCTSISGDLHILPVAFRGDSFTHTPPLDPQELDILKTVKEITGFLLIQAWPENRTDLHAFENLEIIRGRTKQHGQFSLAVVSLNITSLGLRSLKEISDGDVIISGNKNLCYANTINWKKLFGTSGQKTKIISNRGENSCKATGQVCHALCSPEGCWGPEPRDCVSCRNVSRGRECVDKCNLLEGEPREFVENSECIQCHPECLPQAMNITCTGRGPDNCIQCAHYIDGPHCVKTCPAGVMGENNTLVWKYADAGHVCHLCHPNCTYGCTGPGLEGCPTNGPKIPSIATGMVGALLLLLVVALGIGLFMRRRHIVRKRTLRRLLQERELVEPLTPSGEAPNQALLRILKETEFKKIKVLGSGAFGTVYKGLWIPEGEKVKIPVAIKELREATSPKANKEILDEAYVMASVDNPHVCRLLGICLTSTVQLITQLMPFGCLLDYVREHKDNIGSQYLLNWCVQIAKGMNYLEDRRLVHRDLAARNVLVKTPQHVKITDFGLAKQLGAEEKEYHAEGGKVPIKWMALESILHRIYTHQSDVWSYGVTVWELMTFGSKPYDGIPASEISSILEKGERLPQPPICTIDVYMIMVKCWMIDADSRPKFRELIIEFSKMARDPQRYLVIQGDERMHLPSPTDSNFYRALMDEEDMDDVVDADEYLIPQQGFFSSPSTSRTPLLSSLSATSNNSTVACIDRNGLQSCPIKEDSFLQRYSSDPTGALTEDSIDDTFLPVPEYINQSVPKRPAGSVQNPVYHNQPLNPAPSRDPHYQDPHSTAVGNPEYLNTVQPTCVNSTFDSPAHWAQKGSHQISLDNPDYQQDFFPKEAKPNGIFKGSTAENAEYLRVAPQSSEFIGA

| mutEGFR (D770_N771insSVD) kinase assay IC50 [2] | IC50 (Bub1; [7]) | IC50 (Bub1; read-out: Bub1 high ATP (2 mM) IC50 [mol/l]) | SMILES | GI50 [1] | GI50 [3] | GI50 [4] | GI50 [5] | GI50 (Ba/F3-EGFR L861Q cells) | GI50 [6] |
| --- | --- | --- | --- | --- | --- | --- | --- | --- | --- |
| 0.0799 nM | 7880 nM |  | O=C1NCCc2[nH]c(-c3ccncc3OCC3COCCO3)c(Nc3cccc(Cl)c3Cl)c21 (single isomer, unassigned) [Example 8, 3-(2,3-dichloroanilino)-2-{3-[(1,4-dioxan-2-yl)methoxy]pyridin-4-yl}-1,5,6,7-tetrahydro-4H-pyrrolo[3,2-c]pyridin-4-one] | 9.62 nM | 23.1 nM | 4.91 nM | 11.6 nM | 13.7 nM | 1.2 nM |
| 0.0872 nM | 9530 nM |  | COc1c(F)cccc1Nc1c(-c2ccncc2OC[C@@H]2COCCN2C)[nH]c2c1C(=O)NCC2 [Example 20, 3-(3-fluoro-2-methoxyanilino)-2-(3-{[(3S)-4-methylmorpholin-3-yl]methoxy}pyridin-4-yl)-1,5,6,7-tetrahydro-4H-pyrrolo[3,2-c]pyridin-4-one] | 11.7 nM | 56.7 nM | 6.59 nM | 14.7 nM |  | 0.791 nM |
| 0.155 nM | > 20000 nM |  | Cc1c(Cl)cccc1Nc1c(-c2ccncc2OC[C@@H]2CN(C)CCO2)[nH]c2c1C(=O)NCC2 [Example 42, 3-(3-chloro-2-methylanilino)-2-(3-{[(2S)-4-methylmorpholin-2-yl]methoxy}pyridin-4-yl)-1,5,6,7-tetrahydro-4H-pyrrolo[3,2-c]pyridin-4-one] | 14.1 nM | 48.5 nM | 6.01 nM | 12 nM | 18.8 nM | 1.63 nM |
| 0.127 nM |  |  | COc1c(Cl)cccc1Nc1c(-c2ccncc2OCC2COC(C)(C)CO2)[nH]c2c1C(=O)NCC2 (single isomer, unassigned) [Example 32, 3-(3-chloro-2-methoxyanilino)-2-{3-[(5,5-dimethyl-1,4-dioxan-2-yl)methoxy]pyridin-4-yl}-1,5,6,7-tetrahydro-4H-pyrrolo[3,2-c]pyridin-4-one] | 13.2 nM | 47.3 nM | 11 nM | 9.38 nM | 17.4 nM | 1.12 nM |
| 0.13 nM |  | > 20000 nM | COc1c(F)cccc1Nc1c(-c2ccncc2OCC2CN(C)CCO2)[nH]c2c1C(=O)NCC2 (single isomer, unassigned) [Example 14, 3-(3-fluoro-2-methoxyanilino)-2-{3-[(4-methylmorpholin-2-yl)methoxy]pyridin-4-yl}-1,5,6,7-tetrahydro-4H-pyrrolo[3,2-c]pyridin-4-one] | 16.4 nM | 65.8 nM | 7.6 nM | 12.5 nM | 20.1 nM | 1.91 nM |
| 0.249 nM | 12200 nM |  | Cc1c(F)cccc1Nc1c(-c2ccncc2OCC2COCCO2)[nH]c2c1C(=O)NCC2 (single isomer, unassigned) [Example 48, 2-[3-(1,4-dioxan-2-ylmethoxy)-4-pyridyl]-3-(3-fluoro-2-methyl-anilino)-1,5,6,7-tetrahydropyrrolo[3,2-c]pyridin-4-one] | 41.8 nM | 142 nM | 17.6 nM | 42.4 nM | 39.7 nM |  |
|  | 6040 nM |  | COc1c(Cl)cccc1Nc1c(-c2ccncc2OC[C@@H]2COCCO2)[nH]c2c1C(=O)NCC2 (single isomer, unassigned) [Example 2] | 4.66 nM | 28.2 nM | 7.48 nM | 4.44 nM | 14.8 nM | 0.603 nM |
| 0.17 nM | 3540 nM |  | Cc1c(Cl)cccc1Nc1c(-c2ccncc2OC[C@H]2COCCO2)[nH]c2c1C(=O)NCC2 (single isomer, unassigned) [Example 50] | 10.4 nM | 40.3 nM | 7.42 nM | 11.3 nM | 24 nM | 1.6 nM |
| 0.126 nM | 3790 nM |  | COc1c(Cl)cccc1Nc1c(-c2ccncc2OC[C@@H]2COCCN2C)[nH]c2c1C(=O)NCC2 [Example 21, 3-(3-chloro-2-methoxyanilino)-2-(3-{[(3S)-4-methylmorpholin-3-yl]methoxy}pyridin-4-yl)-1,5,6,7-tetrahydro-4H-pyrrolo[3,2-c]pyridin-4-one] | 7.78 nM | 27.6 nM | 4.22 nM | 5.65 nM | 7.34 nM | 0.444 nM |
| 0.433 nM | 13000 nM |  | Cc1c(Cl)cccc1Nc1c(-c2ccncc2OCC2COC(C)(C)CO2)[nH]c2c1C(=O)NCC2 (single isomer, unassigned) [Example 46, 3-(3-chloro-2-methyl-anilino)-2-[3-[(5,5-dimethyl-1,4-dioxan-2-yl)methoxy]-4-pyridyl]-1,5,6,7-tetrahydropyrrolo[3,2-c]pyridin-4-one] | 11.7 nM | 38.9 nM | 5.77 nM | 14.3 nM | 15.8 nM |  |
| 0.258 nM | 16500 nM |  | CCc1c(Cl)cccc1Nc1c(-c2ccncc2OC[C@@H]2CN(C)CCO2)[nH]c2c1C(=O)NCC2 [Example 56, 3-(3-chloro-2-ethylanilino)-2-(3-{[(2S)-4-methylmorpholin-2-yl]methoxy}pyridin-4-yl)-1,5,6,7-tetrahydro-4H-pyrrolo[3,2-c]pyridin-4-one] | 14.1 nM | 48.9 nM | 7.36 nM | 6.96 nM | 29.5 nM | 1.31 nM |

| SMILES | mutEGFR (D770_N771insSVD) kinase assay IC50 [2] | IC50 (Bub1; [7]) | IC50 (Bub1; read-out: Bub1 high ATP (2 mM) IC50 [mol/l]) | GI50 [1] | GI50 [3] | GI50 [4] | GI50 [5] | GI50 (Ba/F3-EGFR L861Q cells) | GI50 [6] |
| --- | --- | --- | --- | --- | --- | --- | --- | --- | --- |
| COc1c(F)cccc1Nc1c(-c2ccncc2OCC2COCCO2)[nH]c2c1C(=O)NCC2 (single isomer, unassigned) [Example 5, 2-{3-[(1,4-dioxan-2-yl)methoxy]pyridin-4-yl}-3-(3-fluoro-2-methoxyanilino)-1,5,6,7-tetrahydro-4H-pyrrolo[3,2-c]pyridin-4-one] | <0.0725 nM and 0.0851 nM and 0.112 nM and 0.114 nM and 0.12 nM and 0.124 nM and 0.136 nM | 12900 nM |  | 28.7 nM | 79.3 nM | 11.5 nM | 26.3 nM | 30.9 nM | 2.67 nM |
